The text below walks through data of patent publication EP0791603A2, “Pure somatostatin antagonist and methods of use thereof” (American Cyanamid Company, priority 1996, dated 1997).

One experiment deals with SSTR2 (Rattus norvegicus, UniProt P30680). Description: Competitive binding, displacement of [125I]Tyr11 S-14. Also noted: expressed in transfected cells. The settings on record: [125I]Tyr11 S-14 250 pM, room temperature 2 hours; for IC50: membrane protein, read-out: SSTR2 Binding Affinity IC50; for Ki: calculated by Cheng and Prusoff, read-out: SSTR2 Binding Affinity Ki. As to the method:
In this evaluation the concentration of test compound required to displace 50% of somatostatin, SRIF, from the SRIF receptor subtypes expressed in mammalian cells is measured, i.e., the concentration required to inhibit 50% of [^125I] Tyr^11 S-14 (Amersham) (IC50) from binding to the SRIF receptor subtypes.
Radiolabeled SRIF is mixed with pituitary cells, the test compound is added, the mixture is incubated and the radioactivity is measured as compared to control. Reduced radioactivity indicates successful competitive binding of the test compound to the pituitary cell receptor. The concentration of the test compound in nanomolar units required to displace 50% of SRIF from the pituitary cell receptor is calculated and reported in Table II as the IC50 value. Also calculated is the inhibitory constant, Ki.
Tyr^11S-14 (150,000 cpm at 2000 Ci/mmole, 250 pM final concentration). The binding reaction is initiated by adding 2-60µg of membrane protein in a 170 µL volume. Final reaction volume is 200 µl/well. All incubations are carried out at room temperature for 2 hours. Free radioligand is separated from bound ligand by rapid filtration through a glass fiber filter (IH-201-HA) using an Inotech cell harvester. The filter is then washed several times with cold (4°C) binding buffer lacking BSA and protease inhibitors prior to counting in an LKB gamma master counter (78% efficiency). Whatman GFC filters presoaked in 0.3% polyethylenimine (to decrease background) are used.
The IC50 values and Ki values are calculated using the well-known methods described by Y. Cheng and W. H. Prusoff, Biochem. Pharmacol. 22, 3099-3108 (1973), incorporated herein by reference thereto.

Experiment [1] addresses T1, rat somatostatin receptor subtype 2 (SSTR2) (Rattus norvegicus, UniProt P30680).
T1 construct: expressed in transfected cells; host or cells: Saccharomyces cerevisiae LY364
Description: Yeast assay, somatostatin agonist activity (growth zone of modified yeast cells on histidine-free agar). The following applies: rating on a scale of 1-5 from zone of growing cells; S. Cerevisiae LY364. Type of experiment: cell-based. Here is the method:
In this evaluation, yeast cells which have been specifically modified to functionally express rat somatostatin receptor subtype 2 (SSTR2) on their cell surfaces are used. S. Cerevisiae LY364 cells are plated in a standard synthetic agar medium which lacks histidine. In the absence of a somatostatin receptor agonist, the auxotrophic (his3) cells are unable to grow. In the presence of somatostatin, or a somatostatin agonist, the expression of an enzyme (His3p: imidazole-glycerol phosphate dehydratase) which is essential for histidine biosynthesis is induced. The cells become competent to produce histidine, resulting in a zone of growing cells around the applied test compound. The zone is measured and the test compound is given an agonist rating on a scale of 1-5 wherein 1 is minimum agonist activity and 5 is maximum agonist activity.
SCD-ura-trp: • 1) To 500 mL water add: • 1.7 g YNB without amino acids and (NH4)2SO4 • 5.0 g (NH4)2SO4 • 0.7 g CSM-ura-trp • 2) To additional 500 mL water add: 20 g Dextrose • 3) Autoclave separately. Mix.
SCL-ura-trp: • 1) To 500 mL water add: • 1.7 g YNB without amino acids and (NH4)2SO4 • 5.0 g (NH4)2SO4 • 0.7 g CSM-ura-trp • 2) To additional 500 mL water add: 30 mL Lactic Acid • 3) Autoclave separately. Mix.
SCG-ura-trp: • 1) To 500 mL water add: • 1.7 g YNB without amino acids and (NH4)2SO4 • 5.0 g (NH4)2SO4 • 0.7 g CSM-ura-trp • 2) To additional 500 mL water add: 30 g D-Galactose • 3) Autoclave separately. Mix.
SCG-ura-trp-his agar medium, pH 6.8: • 1) To 500 mL water add: • 1.7 g YNB without amino acids and (NH4)2SO4 • 5.0 g (NH4)2SO4 • 0.7 g CSM-ura-trp-his • Stirring Bar • 2) Adjust pH to 6.8-6.9 by dropwise addition of conc. NH4OH • 3) To additional 500 mL water add: 30 g D-Galactose, 20 g Agar • 4) Autoclave separately. • 5) Stir to mix thoroughly. • 6) Equilibrate temperature to 55°C. YNB without amino acids and (NH4)2SO4, CSM-ura-trp, and CSM-ura-trp-his are manufactured by Bio101. Ammonium sulfate ((NH4)2SO4), Dextrose (D-glucose), D-Galactose, and Lactic Acid are manufactured by Sigma.
(§1) • 1) Inoculate 2 mL SCD-ura-trp liquid medium in Falcon 2051 tube with a single colony taken from a plate containing LY364 (MATa ura3-52 leu2 his3 trp1 lys2 ade2 far1:: LYS2 fus1:: FUS1-HIS3 gpal::hisG sst2::ADE2 bearing the SSTR2 expression plasmid, pJH2, and the G protein expression plasmid, pLP82)cells. • 2) Incubate overnight in a roller drum at 30°C.
(§2) Day 2. • 1) Harvest the cells by centrifugation (3 krpm, 5 min, room temp). • 2) Re-suspend with 5 mL of sterile water. • 3) Harvest again by centrifugation. • 4) Re-suspend in 5 mL SCL-ura-trp liquid medium. • 5) Incubate for 6 hours in a roller drum at 30°C. • 6) Harvest the cells again by centrifugation. • 7) Re-suspend in 5 mL SCG-ura-trp liquid medium. • 8) Incubate overnight in a roller drum at 30°C.
(§3) Day 3. • 1) Autoclave SCG-ura-trp-his pH 6.8 agar medium. • 2) Cool to 55°C in water bath. • 3) Add 1 mL of LY364 culture to 1 liter of agar medium. • 4) Stir vigorously for 1 min. • 5) Pour 150 mL each into five 500 cm^2 plates. • 6) Allow to cool on level surface. • 7) Apply test compound.
(§4) On day 3, add 5µL 1 mg/mL S-14 to each plate. Day 5. Begin checking plates for growth around applied compounds. Day 7. Growth in response to somatostatin should be readily observable. Rate extent of growth or inhibition of growth according to rating scale described hereinabove.

The target of experiment [2] is T1, rat somatostatin receptor subtype 2 (SSTR2). The experiment is described as follows: Yeast assay, somatostatin antagonist activity (zone of no growth in presence of S-14). It is filed as cell-based. Also noted: key: 1 is minimum antagonist activity; 5 is maximum antagonist activity; -: When no activity is observed, the result is indicated by a dash. The settings on record: rating on a scale of 1-5 from zone of no growth; 5µL of 1 mg/mL S-14 added to each plate; S. Cerevisiae LY364. Here is the method: To evaluate the somatostatin antagonist activity of a test compound, the above procedure is followed except on day 3, 5µL of 1 mg/mL of somatostatin, S-14, is added to each plate, before applying the test compound. If the test compound is an antagonist of somatostatin, then a zone of no growth will appear within the cell growth zone. This zone of no growth is measured and the test compound is given an antagonist rating on a scale of 1-5 wherein 1 is minimum antagonist activity and 5 is maximum antagonist activity.
The results are shown in Table I. When no activity is observed, the result is indicated by a dash.
as §1, §2, §3, §4

Positions of bridges follow the written chain, without caps; N, C: chain ends. Non-standard residues stand in square brackets, D forms with d. Residues, ends and D or L forms follow the SMILES beside them. Phe(4-NO2) = N[C@@H](Cc1ccc([N+](=O)[O-])cc1)C(=O)O; dPhe(4-NO2) = N[C@H](Cc1ccc([N+](=O)[O-])cc1)C(=O)O; 2Nal = N[C@@H](Cc1ccc2ccccc2c1)C(=O)O; Orn = NCCC[C@H](N)C(=O)O

SSTR2, sequence (P30680 whole entry): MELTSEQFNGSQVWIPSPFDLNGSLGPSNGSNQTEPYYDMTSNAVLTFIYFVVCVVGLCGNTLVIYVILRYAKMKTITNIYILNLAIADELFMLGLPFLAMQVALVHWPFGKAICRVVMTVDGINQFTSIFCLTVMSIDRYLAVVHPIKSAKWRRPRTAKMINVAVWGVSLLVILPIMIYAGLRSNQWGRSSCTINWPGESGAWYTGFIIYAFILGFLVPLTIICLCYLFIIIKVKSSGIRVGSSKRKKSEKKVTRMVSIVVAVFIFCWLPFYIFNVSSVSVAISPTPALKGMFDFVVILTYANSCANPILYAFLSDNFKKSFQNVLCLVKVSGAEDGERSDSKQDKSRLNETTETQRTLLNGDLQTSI
T1 sequence (P30680 whole entry): as above

On to `C[C@@H](O)[C@@H]1NC(=O)[C@H](CCCCN)NC(=O)[C@@H](Cc2c[nH]c3ccccc23)NC(=O)[C@H](Cc2ccc(O)cc2)NC(=O)[C@H](NC(=O)[C@@H](N)Cc2ccc(I)cc2)CSSC[C@@H](C(=O)N[C@@H](Cc2ccc(O)cc2)C(N)=O)NC1=O`, for which, at SSTR2, the IC50 was 0.6 nM and the Ki was 0.26 nM.
On to `CC(=O)N[C@@H](Cc1ccc(I)cc1)C(=O)N[C@@H]1CSSC[C@@H](C(=O)N[C@H](Cc2ccc(O)cc2)C(N)=O)NC(=O)[C@H]([C@@H](C)O)NC(=O)[C@H](CCCCN)NC(=O)[C@@H](Cc2c[nH]c3ccccc23)NC(=O)[C@H](Cc2ccc(O)cc2)NC1=O`, for which, on SSTR2, the IC50 amounted to 6 nM and the inhibition constant (Ki) was 2.8 nM. Moreover, in experiment [1], the “Yeast Assay Agonist” value is on record as “-”. Also, the “Yeast Assay Antagonist” value in experiment [2] is recorded as 4.
As for `CC(=O)N[C@@H](Cc1ccc(I)cc1)C(=O)N[C@@H]1CSSC[C@@H](C(=O)N[C@@H](Cc2ccc(O)cc2)C(N)=O)NC(=O)[C@H]([C@@H](C)O)NC(=O)[C@H](CCCCN)NC(=O)[C@@H](Cc2c[nH]c3ccccc23)NC(=O)[C@H](Cc2ccc(O)cc2)NC1=O`, the “Yeast Assay Agonist” value in experiment [1] is “-”. Also, the “Yeast Assay Antagonist” value in experiment [2] was 1.
Turning to `C[C@@H](O)[C@@H]1NC(=O)[C@H](CCCCN)NC(=O)[C@@H](Cc2c[nH]c3ccccc23)NC(=O)[C@H](Cc2ccc(O)cc2)NC(=O)[C@H](NC(=O)[C@@H](N)Cc2ccc3ccccc3c2)CSSC[C@@H](C(=O)N[C@@H](Cc2ccc(O)cc2)C(N)=O)NC1=O` (H-[2Nal][dC]Y[dW]KTCY-NH2; disulfide 2-7 (inferred); N-terminus assumed), the “Yeast Assay Agonist” value in experiment [1] is “-”. The “Yeast Assay Antagonist” value in experiment [2] was 1.
Regarding `NCCCC[C@@H]1NC(=O)[C@@H](Cc2c[nH]c3ccccc23)NC(=O)[C@H](Cc2ccc(O)cc2)NC(=O)[C@H](NC(=O)[C@@H](N)Cc2ccc([N+](=O)[O-])cc2)CSSC[C@@H](C(=O)N[C@@H](Cc2ccc3ccccc3c2)C(N)=O)NC(=O)[C@H](CO)NC1=O` (H-[Phe(4-NO2)][dC]Y[dW]KSC[2Nal]-NH2; disulfide 2-7), at SSTR2, the half-inhibitory concentration (IC50) worked out at 10 nM and the Ki is 4.44 nM.
For the compound `C[C@@H](O)[C@@H]1NC(=O)[C@H](CCCNC(=N)N)NC(=O)[C@@H](Cc2c[nH]c3ccccc23)NC(=O)[C@H](Cc2ccc(O)cc2)NC(=O)[C@H](NC(=O)[C@@H](N)Cc2ccc([N+](=O)[O-])cc2)CSSC[C@@H](C(=O)N[C@@H](Cc2ccc(O)cc2)C(N)=O)NC1=O` (H-[Phe(4-NO2)][dC]Y[dW]RTCY-NH2; disulfide 2-7 (inferred)), the “Yeast Assay Agonist” value in experiment [1] is recorded as “-”. Further, in experiment [2], the “Yeast Assay Antagonist” value is 2.
As to `CC(C)[C@@H]1NC(=O)[C@H](CCCN)NC(=O)[C@@H](Cc2c[nH]c3ccccc23)NC(=O)[C@H](Cc2ccc(O)cc2)NC(=O)[C@H](NC(=O)[C@@H](N)Cc2ccc([N+](=O)[O-])cc2)CSSC[C@@H](C(=O)N[C@@H](Cc2ccc(O)cc2)C(N)=O)NC1=O` (H-[Phe(4-NO2)][dC]Y[dW][Orn]VCY-NH2; disulfide 2-7), on SSTR2, the IC50 was found to be 113 nM and the inhibitory constant (Ki) was 50.2 nM.
For `CC(C)[C@@H]1NC(=O)[C@H](CCCCN)NC(=O)[C@@H](Cc2c[nH]c3ccccc23)NC(=O)[C@H](Cc2ccc(O)cc2)NC(=O)[C@H](NC(=O)[C@H](N)Cc2ccc([N+](=O)[O-])cc2)CSSC[C@@H](C(=O)N[C@@H](Cc2ccc(O)cc2)C(N)=O)NC1=O` (H-[dPhe(4-NO2)][dC]Y[dW]KVCY-NH2; disulfide 2-7) the same measures were 39 nM and 17.3 nM.

A word on the IC50: it is the midpoint of a concentration-inhibition curve. By Ki is commonly meant the equilibrium dissociation constant of an inhibitor or competing ligand from its target.
